In brackets after ≈: the same amount, converted by molar mass. Like-named read-outs stand apart in the source and are kept apart here.

Two compounds from patent publication US20230020329A1, “Annelated 9-hydroxy-1,8-dioxo-1,3,4,8-tetrahydro-2H-pyrido[1,2-a]pyrazine-7-carboxamides as HIV integrase inhibitors, methods of preparation and application thereof” (priority 2019, published 2023) can be followed below.

In series [1] the test system is HIV-1 (NL4.3 strain) carrying the GFP reporter gene (NL4.3-GFP). The series can be described thus: HIV-1 NL4.3-GFP infection of SupT1 cells. The class given is cell-based. The following applies: Human immunodeficiency virus 1, SUP-T1, read-out: Inhibitory activity (EC50) of HIV-1 (NL4.3 strain) carrying the GFP reporter gene. Here is the method:
6. Inhibitory Activity of HIV-1 (NL4.3 Strain) Carrying the GFP Reporter Gene (NL4.3-GFP) in the SuPT1 Cell Line.
The evaluation was done by RetroVirox Inc. (San Diego, Calif., USA). SupT1 cells were infected with the HIV NL4.3 strain carrying the green fluorescent protein gene (NL4.3-GFP). The virus sample was produced by transfection of 293T cells with proviral DNA. The sample was frozen 48 hours after transfection and stored until use. To enhance the efficiency of infection, a suspension of SupT1 cells was precipitated from the infectious mixture by centrifugation. Test substances were added to the cells immediately before adding the virus. After 2 hours of incubation, the infectious mixture was replaced with a fresh culture medium containing test samples. The effectiveness of the infection was determined after 45 hours by counting the percentage of fluorescent cells in comparison with uninfected cell cultures. The cytotoxicity of the test compounds was determined in parallel on the same, but not infected, SupT1 cell line using the XTT reagent. Serial tenfold dilutions of the samples (starting from 10 μM when determining antiviral activity or from 100 μM for determining cytotoxicity). As a negative control, 0.1% DMSO was used. The values of EC50 were calculated. The quality of the tests was determined using the following controls: signal-to-noise ratio, integrase inhibitor raltegravir (1 μM), and test reproducibility.

Series [2] is described as follows: Thermodynamic (shake-flask) solubility. The class given is physicochemical. The conditions noted are these: for solubility at 24 h: thermodynamic from solid. Here is the method:
The test compound of general formula 1 or 2 (2 mg) was weighed into a glass vial. The pION universal buffer (0.5 ml) with pH 7.4 or deionized water was added to appropriate vials. The vials were tightly closed with a lid, placed on a rotating shaker, and incubated for 24 hours to balance the solution and the solid phase at the saturation point. Each resulting solution (200 μl) was taken (in duplicate) from the vials, placed in a 96-well MultiScreen Solubility Filter Plate (Millipore), and filtered using vacuum ([…]) into a polypropylene plate with a U-shaped bottom. If necessary, the filtrates were diluted with an appropriate buffer (water). Then, 120 μl of the filtarate (or a diluted filtrate) was transferred to a 96-well plate with a UV-transparent bottom and 60 μl/well of acetonitrile and 20 μl/well of DMSO were added and thoroughly mixed with a multichannel pipette (acetonitrile and DMSO were added to obtain a required composition of calibration standards, as described below). The optical density of the resulting solutions was measured on a multifunction Infinite 200 PRO plate reader in the wavelength range from 240 nm to 400 nm in steps of 10 nm. The value of ODλ for solutions was assessed at a wavelength chosen for plotting a calibration curve.
The concentration of a substance in the solution after the solubility test was evaluated using a calibration curve. A stock solution in DMSO with a concentration of 2 mg/ml was prepared from a separate sample. […] The range of final concentrations of the calibration curve was 0.2; 0.1; 0.05; 0.025; 0.0125; 0.00625, and 0 mg/ml. Calibration solutions were prepared in a 96-well UV plate as follows: 20 μl of a 10-fold stock solution in DMSO, 60 μl of acetonitrile, and 120 μl of the appropriate buffer were added to the well and stirred. The optical density of the resulting solutions was measured on a multifunction Infinite 200 PRO plate reader in the wavelength range from 240 nm to 400 nm with a step of 10 nm. The optimal wavelength typically corresponding to the absorption maximum was chosen, and a linear dependence of OD at a given wavelength on the concentration of the compound was obtained.
The concentration of the compound in the filtrate after the solubility test was calculated according to the formula:
shake-flask solubility=(ODλfiltrate−ODλblank)/(slope×1.67×filtrate dilution)
wherein slope means the slope of the calibration curve; 1.67 is the filtrate acetonitrile+DMSO dilution ratio; filtrate dilution is an additional dilution of the filtrate, if applicable.

A short description of series [3]: Pharmacokinetics in rat plasma, IV and oral. Format: in vivo, male Sprague-Dawley rats. Here is the method:
The research was carried out on male Sprague-Dawley rats obtained from Charles River Laboratories (Germany). […] The age of the animals at the time of administration was 8-10 weeks. The animals were pre-catheterized so that all blood samples during the study of each substance could be taken from the same animals. Each substance was tested in 3 animals at each route of administration. The solution of test substances with a concentration of 0.2 mg/ml in 10% DMSO/10% Solutol/80% 0.05M N-methylglucamine was administered to rats intravenously in the tail vein at a dose of 1 mg/kg. Blood samples were collected at 5, 15, 30 min, 1, 2, 4, 8, and 24 hours after administration. Intragastric administration involved gavage using a solution with a concentration of 0.5 mg/ml in 0.5% methylcellulose at a dose of 5 mg/kg. Blood samples were collected at 15, 30 min, 1, 2, 4, 8, and 24 hours after administration. Blood (0.2 ml) was collected in polypropylene tubes containing 20 μl of 5% NaEDTA. Blood plasma was separated by centrifugation at 1500×g for 10 min and stored until testing at a temperature of −80° C. A pure acetonitrile-water (1:1) mixture (5 μl) was added to 45 μl of test samples. The samples were vortexed thoroughly for 10 seconds. Tolbutamide (100 μl) chilled to +4° C. (200 ng/ml in MeCN) was added to the samples and the mixture was vortexed. The samples were precipitated on ice at +4° C. for 15 minutes and then centrifuged at 2700 g for 10 min at +4° C. Supernatants (100 μl each) were transferred to a blank plate for HPLC/MS/MS analysis. The HPLC/MS/MS analysis was performed using an Agilent 1290 Infinity system coupled to an AB Sciex QTrap 6500 mass spectrometer. Pharmacokinetic analysis of plasma concentration vs time data was performed by a model-independent method using the Phoenix™ WinNonlin® 6.3 software (Pharsight Corp.). […]

[4] abbreviates: aqueous buffer, pION universal buffer pH 7.4, 24 h, read-out: Solubility, pH 7.4, value.

Turning to `C[C@H]1CO[C@@H]2Cn3cc(C(=O)NCc4ncc(F)cc4F)c(=O)c(O)c3C(=O)N12` [Compound 1.1.17, (3S,11aR)-6-hydroxy-N-[(3,5-difluoropyridin-2-yl)methyl]-3-methyl-5,7-dioxo-2,3,5,7,11,11a-hexahydro[1,3]oxazolo[3,2-a]pyrido[1,2-d]pyrazine-8-carboxamide], the EC50 (usually the concentration at which the effect is half-maximal) in series [1] stood at 1.5 nM. Besides, the solubility – broadly, the concentration that dissolves in the medium under given conditions – at 24 h is 196 µg/mL (≈ 482 µM) in series [2] (setting [4]) and 131 µg/mL (≈ 322 µM) in series [2] (deionized water, 24 h, read-out: Solubility, water, value).
For `C[C@H]1CO[C@@H]2Cn3cc(C(=O)NCc4ccc(F)nc4F)c(=O)c(O)c3C(=O)N12` [Compound 1.1.19, (3S,11aR)-6-hydroxy-N-[(2,6-difluoropyridin-3-yl)methyl]-3-methyl-5,7-dioxo-2,3,5,7,11,11a-hexahydro[1,3]oxazolo[3,2-a]pyrido[1,2-d]pyrazine-8-carboxamide], the EC50 in series [1] came out at 1.9 nM. The concentration at 8 h in series [3] (male, Sprague-Dawley, rat plasma, oral 5 mg/kg, 8 h, read-out: C8 h) amounted to 7910 ng/mL. The concentration at 24 h in series [3] (male, Sprague-Dawley, rat plasma, oral 5 mg/kg, 24 h, read-out: C24 h) was determined as 4440 ng/mL. For the same compound, in series [3] (rat plasma, IV 1 mg/kg), the AUCINF was found to be 367.627 µg·h/mL, the AUClast is 202.189 µg·h/mL, the highest concentration (Cmax) (commonly the maximum level reached in the sampled fluid or tissue) amounted to 18550 ng/mL and the MRTlast is 9.46 h. In addition, in series [3] (rat plasma, IV 1 mg/kg), the T1/2 is recorded as 21.2 h; the Tmax (as a rule, the time from dosing to the highest level) worked out at 0.08 h; the kel was found to be 0.03 h⁻¹. In series [3] (rat plasma, oral 5 mg/kg), the AUCINF came out at 282.07 µg·h/mL, the AUClast stood at 176.506 µg·h/mL, the Cmax is 11488 ng/mL and the MRTlast was 9.42 h. Moreover, in series [3] (rat plasma, oral 5 mg/kg), the T1/2 was 16.5 h, the Tmax came to 3 h and the kel was found to be 0.04 h⁻¹. In addition, the “F (bioavailability)” value in series [3] (rat, oral 5 mg/kg vs IV 1 mg/kg, F=(AUClast PO/5·AUClast IV)·100) was determined as 17.5%. Moreover, the solubility at 24 h in series [2] (setting [4]) stood at 232 µg/mL (≈ 571 µM). For the same compound, in series [2] (deionized water, 24 h), the “Solubility, water, value” is 269 µg/mL (≈ 662 µM). In addition, in series [2] (deionized water, water, read-out: Solubility in water), the solubility at 24 h amounted to 269 µg/mL (≈ 662 µM).
